Measurements: patent publication US20140243195A1, “N-Thio-anthranilamide compounds and their use as pesticides” (BASF SE, priority 2011, published 2014)

Columns and labels:
Format in all cases: in vivo
[1] = tested on: Cowpea Aphid (Aphis craccivora); assay: Cowpea aphid (Aphis craccivora) spray test on potted cowpea plants; conditions: assessed after 72 hours, in comparison with untreated controls
Protocol: The active compound was dissolved at the desired concentration in a mixture of 1:1 (vol:vol) distilled water:acetone. Surfactant (Alkamuls® EL 620) is added at a rate of 0.1% (vol/vol). The test solution was prepared at the day of use.
Potted cowpea plants were colonized with approximately 50-100 aphids of various stages by manually transferring a leaf tissue cut from infested plant 24 hours before application. Plants were sprayed after the pest population has been recorded. Treated plants were maintained on light carts at about 28° C. Percent mortality was assessed after 72 hours.

[2] = tested on: Diamond Back Moth (Plutella xylostella); assay: Diamond back moth (Plutella xylostella) cabbage leaf dip test; conditions: foliar, 3rd instar larvae, 72 hours after treatment, in comparison with untreated controls
Protocol: The active compound was dissolved at the desired concentration in a mixture of 1:1 (vol:vol) distilled water:acetone. Surfactant (Alkamuls® EL 620) is added at a rate of 0.1% (vol/vol).The test solution was prepared at the day of use.
Leaves of cabbage were dipped in test solution and air-dried. Treated leaves were placed in petri dishes lined with moist filter paper and inoculated with ten 3rd instar larvae. Mortality was recorded 72 hours after treatment. Feeding damages were also recorded using a scale of 0-100%.

[3] = tested on: Mediterranean Fruitfly (Ceratitis capitata); assay: Mediterranean fruitfly (Ceratitis capitata) microtiter plate insect diet test; conditions: 120 h, egg and larval mortality after 5 days, in comparison with untreated controls
Protocol: For evaluating control of Mediterranean fruitfly (Ceratitis capitata) the test unit consisted of microtiter plates containing an insect diet and 50-80 C. capitata eggs.
(§1) The compounds were formulated using a solution containing 75% v/v water and 25% v/v DMSO. Different concentrations of formulated compounds were sprayed onto the insect diet at 5 μl, using a custom built micro atomizer, at two replications.
After application, microtiter plates were incubated at about 28±1° C. and about 80±5% relative humidity for 5 days. Egg and larval mortality was then visually assessed.

[4] = tested on: Orchid Thrips (Dichromothrips corbetti); assay: Orchid thrips (Dichromothrips corbetti) floral-immersion test; conditions: adult thrips, 72 hours after treatment, in comparison with untreated controls
Protocol: Dichromothrips corbetti adults used for bioassay were obtained from a colony maintained continuously under laboratory conditions. For testing purposes, the test compound was diluted in a 1:1 mixture of acetone:water (vol:vol), plus 0.01% vol/vol Alkamuls® EL 620 surfactant.
Thrips potency of each compound was evaluated by using a floral-immersion technique. Plastic petri dishes were used as test arenas. All petals of individual, intact orchid flowers were dipped into treatment solution and allowed to dry. Treated flowers were placed into individual petri dishes along with—about 20 adult thrips. The petri dishes were then covered with lids. All test arenas were held under continuous light and a temperature of about 28° C. for duration of the assay. After 3 days, the numbers of live thrips were counted on each flower, and along inner walls of each petri dish. The percent mortality was recorded 72 hours after treatment.

[5] = tested on: Southern Armyworm (Spodoptera eridania); assay: Southern armyworm (Spodoptera eridania) spray test on lima bean plants; conditions: 96 h, larvae, 4 days after treatment, in comparison with untreated controls
Protocol: (§2) The active compounds were formulated in cyclohexanone as a 10,000 ppm solution supplied in tubes. The tubes were inserted into an automated electrostatic sprayer equipped with an atomizing nozzle and they served as stock solutions for which lower dilutions were made in 50% acetone:50% water (v/v). A nonionic surfactant (Kinetic®) was included in the solution at a volume of 0.01% (v/v).
(§3) Lima bean plants (variety Sieva) were grown 2 plants to a pot and selected for treatment at the 1st true leaf stage. Test solutions were sprayed onto the foliage by an automated electrostatic plant sprayer equipped with an atomizing spray nozzle. The plants were dried in the sprayer fume hood and then removed from the sprayer. Each pot was placed into perforated plastic bags with a zip closure. About 10 to 11 armyworm larvae were placed into the bag and the bags zipped closed. Test plants were maintained in a growth room at about 25° C. and about 20-40% relative humidity for 4 days, avoiding direct exposure to fluorescent light (24 hour photoperiod) to prevent trapping of heat inside the bags. Mortality and reduced feeding were assessed 4 days after treatment, compared to untreated control plants.

[6] = tested on: Vetch Aphid (Megoura viciae); assay: Vetch aphid (Megoura viciae) broad bean leaf disk microtiter test; conditions: foliar, 120 h, adult aphids, after 5 days, in comparison with untreated controls
Protocol: For evaluating control of vetch aphid (Megoura viciae) through contact or systemic means the test unit consisted of 24-well-microtiter plates containing broad bean leaf disks.
The compounds were formulated using a solution containing 75% v/v water and 25% v/v DMSO. Different concentrations of formulated compounds were sprayed onto the leaf disks at 2.5 μl, using a custom built micro atomizer, at two replications.
After application, the leaf disks were air-dried and 5-8 adult aphids placed on the leaf disks inside the microtiter plate wells. The aphids were then allowed to suck on the treated leaf disks and incubated at about 23±1° C. and about 50±5% relative humidity for 5 days. Aphid mortality and fecundity was then visually assessed.

[7] = tested on: Tobacco Budworm (Heliothis virescens); assay: Tobacco budworm (Heliothis virescens) I spray test on cotton plants; conditions: 96 h, larvae, 4 days after treatment, in comparison with untreated controls
Protocol: as §2
as §3, with “Cotton” for “Lima bean”, “plants” for “plants (variety Sieva)”, “cotyledon” for “1st true leaf”, “budworm” for “armyworm”

[8] = tested on: Boll Weevil (Anthonomus grandis); assay: Boll weevil (Anthonomus grandis) microtiter plate insect diet test; conditions: 120 h, egg and larval mortality after 5 days, in comparison with untreated controls
Protocol: For evaluating control of boll weevil (Anthonomus grandis) the test unit consisted of 96-well-microtiter plates containing an insect diet and 5-10 A. grandis eggs.
as §1
After application, microtiter plates were incubated at about 25±1° C. and about 75±5% relative humidity for 5 days. Egg and larval mortality was then visually assessed.

[9] = tested on: Colorado Potato Beetle (Leptinotarsa decemlineata); assay: Colorado potato beetle (Leptinotarsa decemlineata) spray test on eggplant foliage; conditions: foliar, 96 h, beetle larvae, 4 days after treatment, in comparison with untreated controls
Protocol: as §2
Eggplants were grown 2 plants to a pot and were selected for treatment at the 1st true leaf stage. Test solutions were sprayed onto the foliage by an automated electrostatic plant sprayer equipped with an atomizing spray nozzle. The plants were dried in the sprayer fume hood and then removed from the sprayer. The treated foliage was then cut and removed from the pot and placed in a Petri dish lined with moistened filter paper. Five beetle larvae were introduced into each Petri dish and the dish was covered by a Petri dish lid. Petri dishes were maintained in a growth room at about 25° C. and about 20-40% relative humidity for 4 days, avoiding direct exposure to fluorescent light (24 hour photoperiod) to prevent trapping of heat inside the dishes. Mortality and reduced feeding were assessed 4 days after treatment, compared to untreated control plants.

Cc1cc(Cl)cc(C(=O)N=S2CCCC2)c1NC(=O)c1ccc(C(F)(F)F)cc1-c1ncccc1Cl [Compound 1-7, 5-chloro-2-[[2-(3-chloro-2-pyridyl)-4-(trifluoromethyl)benzoyl]amino]-3-methyl-N-(thiolan-1-ylidene)benzamide]
≥ 75%: mortality at 300 ppm [1] | mortality at 300 ppm [2] | mortality at 2500 ppm [3] | mortality at 500 ppm [4] | mortality at 300 ppm [5] | mortality at 2500 ppm [6] | mortality at 2500 ppm [7] | mortality at 2500 ppm [8] | mortality at 10 ppm [9]
